Measurements reported in patent US4470977A, “Antiemetic and antipsychotic agents” (Adria Laboratories, Inc., priority 1982, dated 1984).

Key:
[1] = tested on: medullary chemoreceptor trigger zone (CTZ); assay: Antiemetic Screen: Antagonism to Apomorphine Induced Emesis In the Dog; assay type: in vivo, beagle dogs; design: key to Antagonism to Apomorphine Induced Emesis: If both animals receiving a particular treatment are protected (i.e., no emetic response within one hour after apomorphine), the test compound is defined as active (+); settings: for Antagonism to Apomorphine Induced Emesis: 10 mg/kg sc, beagle dogs, 0.1 mg/kg sc apomorphine HCl one hour later
Description: Each compound is administered subcutaneously (sc) to two beagle dogs at 10.0 mg/kg. One hour following administration of the test compound, each animal receives 0.1 mg/kg, sc, of apomorphine HCl. Apomorphine consistently evokes an immediate emetic response through direct dopaminergic interaction at the medullary chemoreceptor trigger zone (CTZ). Antiemetic compounds which act at the CTZ and/or the midbrain vomiting center will block this effect of apomorphine. If both animals receiving a particular treatment are protected (i.e., no emetic response within one hour after apomorphine), the test compound is defined as active (+). In instances where protection is observed in only 1 of the 2 animals, the experiment is repeated in two additional animals and the results of the two tests are combined. Compounds which protect 3 out of 4 animals are then defined as active. The results are shown in Table 4 below and indicate that each of the invention compounds is active against emesis.

[2] = tested on: mammary gland; assay: Effect of Sulpiride and Sulpiride Analogs on Mammary Gland Development in Female Sprague Dawley Rats; assay type: in vivo; settings: for Number of Animals with Mammary Hypertrophy: n = 6 female Sprague Dawley rats, 0.02% drug in chow, 14 days
Text: The animals were individually caged during the 14-day study, with rat chow and tap water permitted ad libitum. The rat chow fed to the control group contained no drug, while that fed to the other groups contained 0.02% drug. Food cups were weighed and refilled on day 7 during the study. On day 14 of the study, the animals were sacrificed by asphyxiation in a CO2 atmosphere and then were weighed. The abdominal skin was cut along the midline from the pelvis to the sternum and separated from underlying tissues by blunt dissection. Each animal was then examined grossly for mammary gland enlargement.

[3] = tested on: dopaminergic receptors; assay: Antagonism to Apomorphine Induced Climbing Behavior; assay type: in vivo, mouse; settings: for Antagonism (20 min. After): 20 minutes after 1 mg/kg s.c. apomorphine, doses 6.25 to 100 mg/kg; for Antagonism (20 min. After) / ED50: mouse; for apomorphine induced climbing behavior (in words): indicator of antipsychotic activity; for ED50: antagonism to apomorphine (1 mg/kg s.c.) induced climbing behavior, p.o.
Text: The effect of each of the compounds in Table 1 on apomorphine induced climbing behavior related to stimulation of dopaminergic receptors was studied under the experimental conditions described by Costetin et al, 1975, Rapid and Dissociated Changes in Sensitivities of Different Dopamine Receptors in Mouse Brain, Nature, 257, 405.

[4] = tested on: dopamine receptors; settings: cited from earlier work

SMILES | Antagonism to Apomorphine Induced Emesis [1] | Number of Animals with Mammary Hypertrophy [2] | Antagonism (20 min. After) [3] | antiemetic effect (in words) [1] | mammary hypertrophy (in words) [2] | apomorphine induced climbing behavior (in words) [3] | ED50 [3] | undesirable side effect [4]
CCN1CCCC1CNC(=O)c1cccc([N+](=O)[O-])c1OC (stereo not drawn) [Compound 7, N-(1-ethyl-2-pyrrolidinylmethyl)-2-methoxy-3-nitrobenzamide] | + | 0 animals | Yes | – | – | – | – | –
CCN1CCCC1CNC(=O)c1cc(Cl)ccc1Cl (stereo not drawn) [Compound 12, 2,5-dichloro-N-(1-ethyl-2-pyrrolidinylmethyl)-benzamide] | + | 0 animals | Yes | possess an antiemetic effect | without mammary hypertrophy | suppress apomorphine induced climbing behavior | – | –
CCN1CCCC1CNC(=O)c1ccc(Cl)cc1OC (stereo not drawn) [Compound 2, 4-chloro-N-(1-ethyl-2-pyrrolidinylmethyl)-2-methoxybenzamide] | + | 0 animals | Yes | possess an antiemetic effect | without mammary hypertrophy | suppress apomorphine induced climbing behavior | – | –
CCN1CCCC1CNC(=O)c1cccc(Cl)c1OC (stereo not drawn) [Compound 1, 3-chloro-N-(1-ethyl-2-pyrrolidinylmethyl)-2-methoxybenzamide] | + | 0 animals | Yes | possess an antiemetic effect | without mammary hypertrophy | suppress apomorphine induced climbing behavior | 26.8 (20.7-38.5) mg/kg p.o. | –
CCN1CCCC1CNC(=O)c1cccc(N)c1C (stereo not drawn) [Compound 11, 3-amino-N-(1-ethyl-2-pyrrolidinylmethyl)-2-methylbenzamide] | + | 0 animals | No | – | – | – | – | –
CCN1CCCC1CNC(=O)c1cccc(C)c1N (stereo not drawn) [Compound 10, 2-amino-N-(1-ethyl-2-pyrrolidinylmethyl)-3-methylbenzamide] | + | 0 animals | No | – | – | – | – | –
CCN1CCCC1CNC(=O)c1cc(C)ccc1OC (stereo not drawn) [Compound 6, N-(1-ethyl-2-pyrrolidinylmethyl)-2-methoxy-5-methylbenzamide] | + | 0 animals | Yes | – | – | – | – | –
CCN1CCCC1CNC(=O)c1cc(S(N)(=O)=O)ccc1OC (stereo not drawn) [Sulpiride, 2-methoxy-N-(1-ethyl-2-pyrrolidinylmethyl)-5-sulfamoyl benzamide, reference compound] | – | 6 animals | Yes | – | consistently produce mammary hypertrophy | – | 24.3 (19.3-32.4) mg/kg p.o. | mammary hypertrophy
CCN1CCCC1CNC(=O)c1cc(Cl)ccc1OC (stereo not drawn) [Compound 3, 5-chloro-N-(1-ethyl-2-pyrrolidinylmethyl)-2-methoxybenzamide] | + | 0 animals | Yes | possess an antiemetic effect | without mammary hypertrophy | suppress apomorphine induced climbing behavior | – | –
CCN1CCCC1CNC(=O)c1ccccc1N (stereo not drawn) [Compound 9, 2-amino-N-(1-ethyl-2-pyrrolidinylmethyl)-benzamide] | + | 0 animals | Yes | possess an antiemetic effect | without mammary hypertrophy | suppress apomorphine induced climbing behavior | – | –
CCN1CCCC1CNC(=O)c1cccc(Cl)c1C (stereo not drawn) [Compound 13, 3-chloro-N-(1-ethyl-2-pyrrolidinylmethyl)-2-methylbenzamide] | + | 0 animals | No | – | – | – | – | –
CCN1CCCC1CNC(=O)c1ccc(C)cc1OC (stereo not drawn) [Compound 5, N-(1-ethyl-2-pyrrolidinylmethyl)-2-methoxy-4-methylbenzamide] | + | 0 animals | Yes | – | – | – | – | –
CCN1CCCC1CNC(=O)c1ccccc1OC (stereo not drawn) [Compound 4, N-(1-ethyl-2-pyrrolidinylmethy)-2-methoxybenzamide] | + | 0 animals | Yes | possess an antiemetic effect | without mammary hypertrophy | suppress apomorphine induced climbing behavior | – | –
CCN1CCCC1CNC(=O)c1cccc(C)c1[N+](=O)[O-] (stereo not drawn) [Compound 8, N-(1-ethyl-2-pyrrolidinylmethyl)-3-methyl-2-nitrobenzamide] | + | 0 animals | No | – | – | – | – | –
